Test results taken from patent publication US20090253134A1, “Cellular Pyrogen Test” (Fraunhofer-Gesellschaft zur Forderung der angewandten …, priority 2006, published 2009).
Entries after “also recorded” stand apart in the source; their conditions may differ.

Legend:
TLR-4/CD14 [1] = target: T1, TLR-4/CD14 (Homo sapiens, UniProt O00206+Q9Y6Y9); assay: NIH-3T3 TLR-4/CD14 SEAP reporter gene pyrogen test; assay type: cell-based
T1 construct: expressed in transfected cells; host or cells: NIH-3T3 (murine fibroblasts), clone 4/5
From the text: The cell line NIH-3T3 was transfected with a TLR-4/CD14 complex as well as the reporter gene plasmid SEAP/ELAM-1.
The endotoxin (LPS)-mediated induction of TLR-4 leads according to a signal cascade to activation of the transcription factor NF-κB. Expression of the reporter gene SEAP is controlled by an ELAM-1 promoter inducible by NF-κB. NF-κB activation and therefore specifically secretion of SEAP then occurs on induction of TLR-4 by the endotoxin lipopolysaccharide LPS.
NIH-3T3 TLR-4/CD14 clone 4/5 P35 in a density of 30,000 to 200,000 cells/well (24-well) (corresponding cell count for other well volume) are inoculated in 500 μL/well in 0.5% FCS medium o/n for adhesion.
On the next day detection occurs by incubation with 300 μL/well detection medium, which is added directly to the induced cells: in the induced cells SEAP activity converts the substrate BCIP in the detection medium to a dark blue insoluble end product (indigo). As an alternative SEAP activity in the induced cells converts the substrate pNPP in the detection medium to a light yellow soluble color complex, which is determined photometrically at about 405 nm. The photometric analysis occurs about 2 hours after addition of the detection medium.
In one variant transfected cell lines are frozen in the corresponding assay format, here: a cell culture-well-plate (multiwell plate) in corresponding density (200,000 cells/well in 500 μL each (in 24-well)).
After thawing of the kit, addition of DMEM culture medium occurs for adhesive of the cells overnight. A medium with HEPES buffer permits incubation of the cell test in a heating cabinet, i.e., without CO2 gassing. Induction is carried out per test by addition of 100 ng/mL LPS. The detection is conducted after 24 hours by addition of 300 μL/well BCIP detection medium.
On a multiwell plate (96-well) NIH-3T3 TLR-4/CD14 SEAP P40 cells were frozen in a density of 30,000 cells/well in 100 μL medium (DMEM 80 mmol/L HEPES, 30% FCS and 5% DMSO) in suspension at −80° C.
After 72 hours to 4 weeks at −80° C. the cells were thawed by addition of 100 μL medium (10% FCS) at 37° C. […]

[2] = system: Limulus amebocyte lysate proenzyme; settings: cited from earlier work
TLR-4/CD14 [3] = target: T2, TLR-4/CD14 (Homo sapiens, UniProt O00206); assay: SDS-PAGE/Western Blot analysis of SEAP expression in HEK293 and other 293 cells transfected with TLR-4/CD14 SEAP; assay type: cell-based; settings: 100 ng/mL LPS; cell pellets
T2 construct: expressed in transfected cells; host or cells: HEK blue 293 and other 293 cells (clones K2, K4)
Description: (§1) HEK blue 293 fibroblasts and other 293 fibroblasts were transfected with TLR-4/CD14 SEAP and induced with 100 ng/mL LPS. All other process parameters were chosen as in example 1 according to the invention.
In addition, a Western Blot analysis of gene expression was conducted in known fashion: first antibody: anti-SEAP; conjugated second antibody: anti-mouse POD; marker: SeeBlue® Plus2; prestained standard.

human whole blood cells = settings: cited from earlier work
TLR-4/CD14 [4] = target: T2, TLR-4/CD14; assay: Comparative TLR-4 colour test with HEK blue 293 and other 293 fibroblasts transfected with TLR-4/CD14 SEAP; assay type: cell-based; settings: 100 ng/mL LPS; induced and noninduced controls both turn blue
Description: as §1

TLR-5 [5] = target: T3, TLR-5 (Homo sapiens, UniProt O60602); assay: Comparative TLR-5 test with HELA cells transfected with TLR-5 SEAP; assay type: cell-based; set-up: expressed in transfected cells; settings: 2 μg/mL flagellin; induced and noninduced controls both intensely blue
Description: FIG. 13 comparative experiment: TLR-5 test with HELA cells transfected with TLR-5 SEAP induced with 2 μg/mL flagellin; both the induced cells and the noninduced controls show intense blue coloration.

TLR-5 [6] = target: T3, TLR-5; assay: NIH-3T3 TLR-5 SEAP reporter gene test; assay type: cell-based; set-up: expressed in transfected cells; host or cells: NIH-3T3 (murine fibroblasts); settings: 2 μg/mL flagellin; BCIP
Description: The cell line NIH-3T3 was transfected with TLR-5 and the reporter gene plasmid SEAP. The measures correspond to example 1.
NIH-3T3 clone TLR-5 was inoculated in a density of 30,000 to 200,000 cells/well (24-well) in 500 μL/well in 0.5% FCS medium; induction occurs with 2 μg/mL flagellin; detection by incubation with 300 μL/well detection medium with BCIP.

T1 sequence (O00206 24-839): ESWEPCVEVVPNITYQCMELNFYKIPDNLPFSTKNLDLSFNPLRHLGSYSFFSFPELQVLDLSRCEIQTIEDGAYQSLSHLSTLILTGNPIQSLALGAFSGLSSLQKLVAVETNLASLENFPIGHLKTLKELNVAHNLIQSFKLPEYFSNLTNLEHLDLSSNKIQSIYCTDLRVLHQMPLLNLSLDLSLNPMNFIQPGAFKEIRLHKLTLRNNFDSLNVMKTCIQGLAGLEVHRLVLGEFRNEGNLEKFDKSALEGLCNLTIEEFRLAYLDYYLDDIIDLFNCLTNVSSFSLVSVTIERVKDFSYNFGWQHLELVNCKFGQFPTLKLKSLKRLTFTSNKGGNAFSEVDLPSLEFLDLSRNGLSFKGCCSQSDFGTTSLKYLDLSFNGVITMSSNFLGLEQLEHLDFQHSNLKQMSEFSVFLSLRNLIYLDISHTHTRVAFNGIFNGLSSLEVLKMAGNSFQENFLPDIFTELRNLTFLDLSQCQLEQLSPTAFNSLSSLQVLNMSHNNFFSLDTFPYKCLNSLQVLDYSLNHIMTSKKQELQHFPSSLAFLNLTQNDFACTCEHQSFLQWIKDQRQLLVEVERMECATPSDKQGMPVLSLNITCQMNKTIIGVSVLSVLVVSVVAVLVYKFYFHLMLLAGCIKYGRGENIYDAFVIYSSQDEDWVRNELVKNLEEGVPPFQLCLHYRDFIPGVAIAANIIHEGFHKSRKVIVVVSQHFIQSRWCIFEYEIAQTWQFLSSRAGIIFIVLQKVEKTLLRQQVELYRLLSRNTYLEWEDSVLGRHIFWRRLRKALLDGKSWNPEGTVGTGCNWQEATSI
T1 sequence (Q9Y6Y9 17-160 limits assumed): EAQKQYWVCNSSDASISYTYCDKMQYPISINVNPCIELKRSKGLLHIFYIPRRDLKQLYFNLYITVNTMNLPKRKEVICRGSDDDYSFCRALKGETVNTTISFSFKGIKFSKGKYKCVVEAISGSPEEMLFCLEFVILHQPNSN
T2 sequence (O00206 24-839): as the sequence (O00206 24-839) above
T3 sequence (O60602 21-858): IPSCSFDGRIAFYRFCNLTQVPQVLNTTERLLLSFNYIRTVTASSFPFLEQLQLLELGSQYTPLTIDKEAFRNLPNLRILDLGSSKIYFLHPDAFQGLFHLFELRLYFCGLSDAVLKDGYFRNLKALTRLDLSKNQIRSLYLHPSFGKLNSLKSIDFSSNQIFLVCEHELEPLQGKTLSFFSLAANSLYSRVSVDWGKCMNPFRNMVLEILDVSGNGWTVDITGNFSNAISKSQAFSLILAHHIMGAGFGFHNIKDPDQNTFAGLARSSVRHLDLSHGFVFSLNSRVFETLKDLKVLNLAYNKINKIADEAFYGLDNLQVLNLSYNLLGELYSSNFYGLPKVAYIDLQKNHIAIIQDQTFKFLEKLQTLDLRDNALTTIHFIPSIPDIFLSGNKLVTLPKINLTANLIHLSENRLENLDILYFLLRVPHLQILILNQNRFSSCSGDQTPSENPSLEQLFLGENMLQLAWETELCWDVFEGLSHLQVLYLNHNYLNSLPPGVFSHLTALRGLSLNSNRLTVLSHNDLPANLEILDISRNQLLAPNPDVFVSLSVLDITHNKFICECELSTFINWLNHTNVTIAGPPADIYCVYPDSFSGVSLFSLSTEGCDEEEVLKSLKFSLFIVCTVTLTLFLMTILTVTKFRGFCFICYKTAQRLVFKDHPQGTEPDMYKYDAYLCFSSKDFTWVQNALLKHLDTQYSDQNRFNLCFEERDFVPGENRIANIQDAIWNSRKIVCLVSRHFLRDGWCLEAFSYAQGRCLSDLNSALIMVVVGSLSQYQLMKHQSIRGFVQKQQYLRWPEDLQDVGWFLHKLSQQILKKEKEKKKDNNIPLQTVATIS

## Poly IC
TLR-4/CD14 [1]; induced with 25 μg/mL nonspecific pyrogen each
  color change of detection medium (specificity): no color change

## lipopolysaccharide [LPS]
[2]
  detection limit / sensitivity of LAL: 3 pg/mL
TLR-4/CD14 [3]
  alkaline phosphatase (SEAP) expression, induced vs noninduced cells: in the same amount
Human whole blood cells
  sensitivity of IPT: 20 to 50 pg/mL
TLR-4/CD14 [1]; 100 pg/mL, NIH-3T3 TLR-4/CD14 SEAP P40, induction after 24 hours, detection after 3 hours
  blue coloration of induced cells, frozen and rethawed cells: specific blue coloration
TLR-4/CD14 [1]; 100 ng/mL LPS, thawed NIH-3T3 clone 4/5 TLR-4/CD14, BCIP
  SEAP activity, BCIP color reaction after thawing: deep dark blue
TLR-4/CD14 [4]
  specific induction / color test: no specific induction; also recorded: a specific detection is not possible

## flagellin
TLR-5 [5]
  specific induction / color test: No specific induction is possible
TLR-5 [6]
  blue coloration of induced cells: specific blue coloration
